Experimental data taken from US7166299B2, “Preparation of aqueous clear solution dosage forms with bile acids” (priority 1998, dated 2007).
Several values for one entry are separate records, joined by “and”; a condition that tells them apart may be missing. Equal values may be shown once.

Assays:
[1] = cited from earlier work
[2] = Solution stability test (HPLC) of mixed bile acids with maltodextrin in aqueous solution, Example II; assay type: physicochemical; settings: Table 2: pH 1, 50° C.
Procedure: (§1) The stability of dosage formulations of the invention were evaluated by measuring the concentration of the relevant bile acid over time in preparations comprising soluble bile acid, a high molecular weight aqueous soluble starch conversion product, and water at various pH and temperature levels. The retention time of each bile acid may be adjusted as needed to permit individual analysis each bile acid present in a complex samples, i.e. a sample having a plurality of bile acids.
(§2) The stability tests were conducted on three different aqueous solution systems: […].
(§3) The stability tests were performed with HPLC and microscope light at various pH conditions under the normal and accelerated conditions. Accelerated conditions for testing pharmaceutical compositions have been described (Remington, The Science and Practice of Pharmacy, 19th ed., p. 640). […] Thus, the formulations of the examples are suitable for preparing a commercial liquid dosage form. […] Some formulations remain stable for over 2 years.
(§4) For the solution stability test for each bile acid, HPLC was used to measure the concentration of the relevant soluble bile acid under the following conditions: the elution solvent of 0.02 M KH2PO4:acetonitrile in a ratio of 55:45, with a pH of 3.01, the flow rate was 0.8 mL/min., the injection volume was 20 μL, wave length for detection was 195 nm. In the tables, the concentration of the indicated bile acid salt for each of the three numbered trials and the average thereof is reported on each line. The percentage indicates the relative concentration of the bile acid salt after incubation for a certain amount of time in comparison with the initial concentration.
Into the resulting clear solution, maltodextrin was added with agitating at room temperature. Purified water was added to adjust the total volume to be 100 mL.

[3] = Solution stability test (HPLC) of single bile acid with maltodextrin in aqueous solution, Example I; assay type: physicochemical
Procedure: as §1, §2, §3, §4
100 mL of the aqueous solution in which one of the above bile acids is dissolved was prepared. Into the resulting clear solution, maltodextrin, a high molecular weight aqueous soluble starch conversion product, was added with agitation at room temperature. Purified water was added to adjust the total volume to be 100 mL. According to the instant invention and all examples, purified water is deionized, distilled deionized-distilled water, or a grade commonly used for pharmaceutical preparations.

[4] = Table 1B: pH 10, 50° C., day 20

Row | Compound | solubility in the gastric juices and in aqueous hydrochloric acid solution [1] | Percentage of day 0 concentration ([2]; day 0) [%] | concentration by HPLC, Average ([2]; day 0) | concentration by HPLC, trials #1-#3 ([2]; day 0) | Percentage of day 0 concentration ([2]; day 4) [%] | concentration by HPLC, Average ([2]; day 4) | concentration by HPLC, trials #1-#3 ([2]; day 4) | Percentage of day 0 concentration ([2]; day 7) [%] | concentration by HPLC, Average ([2]; day 7) | concentration by HPLC, trials #1-#3 ([2]; day 7) | Percentage of day 0 concentration ([2]; day 20) [%] | concentration by HPLC, Average ([2]; day 20) | concentration by HPLC, trials #1-#3 ([2]; day 20) | Percentage of day 0 concentration ([3]; Table 1A: pH 7, 50° C., day 0) [%] | concentration by HPLC, Average ([3]; Table 1A: pH 7, 50° C., day 0) | concentration by HPLC, trials #1-#3 ([3]; Table 1A: pH 7, 50° C., day 0) | Percentage of day 0 concentration ([3]; Table 1A: pH 7, 50° C., day 4) [%] | concentration by HPLC, Average ([3]; Table 1A: pH 7, 50° C., day 4) | concentration by HPLC, trials #1-#3 ([3]; Table 1A: pH 7, 50° C., day 4) | Percentage of day 0 concentration ([3]; Table 1A: pH 7, 50° C., day 7) [%] | other results
1 | C[C@H](CCC(=O)O)[C@H]1CC[C@H]2[C@@H]3[C@H](O)C[C@@H]4C[C@H](O)CC[C@]4(C)[C@H]3CC[C@]12C [CDCA, chenodeoxycholic acid (3α, 7α-dihydroxy-5β-cholanic acid)] | especially insoluble | 100.0 | 0.534 | 0.560 and 0.528 and 0.513 | 94.7 | 0.506 | 0.488 and 0.510 and 0.519 | 87.0 | 0.464 | 0.460 and 0.469 and 0.463 | 30.2 | 0.161 | 0.169 and 0.154 | 100.0 | 0.547 | 0.572 and 0.539 and 0.530 | 101.6 | 0.556 | 0.540 and 0.552 and 0.576 | 105.0 | solubility in the gastric pH range [1]: no longer soluble; solubility in water [1]: practically insoluble; concentration by HPLC, Average ([3]; Table 1A: pH 7, 50° C., day 7): 0.574; concentration by HPLC, trials #1-#3 ([3]; Table 1A: pH 7, 50° C., day 7): 0.581 and 0.588 and 0.553; Percentage of day 0 concentration ([3]; Table 1A: pH 7, 50° C., day 20): 105.7%; concentration by HPLC, Average ([3]; Table 1A: pH 7, 50° C., day 20): 0.578; concentration by HPLC, trials #1-#3 ([3]; Table 1A: pH 7, 50° C., day 20): 0.565 and 0.608 and 0.560; Percentage of day 0 concentration ([3]; Table 1B: pH 10, 50° C., day 0): 100.0%; concentration by HPLC, Average ([3]; Table 1B: pH 10, 50° C., day 0): 0.522; concentration by HPLC, trials #1-#3 ([3]; Table 1B: pH 10, 50° C., day 0): 0.541 and 0.532 and 0.495; Percentage of day 0 concentration ([3]; Table 1B: pH 10, 50° C., day 4): 100.0%; concentration by HPLC, Average ([3]; Table 1B: pH 10, 50° C., day 4): 0.523; concentration by HPLC, trials #1-#3 ([3]; Table 1B: pH 10, 50° C., day 4): 0.511 and 0.519 and 0.538; Percentage of day 0 concentration ([3]; Table 1B: pH 10, 50° C., day 7): 104.1%; concentration by HPLC, Average ([3]; Table 1B: pH 10, 50° C., day 7): 0.544; concentration by HPLC, trials #1-#3 ([3]; Table 1B: pH 10, 50° C., day 7): 0.564 and 0.527 and 0.540; Percentage of day 0 concentration [3, 4]: 107.4%; concentration by HPLC, Average [3, 4]: 0.561; concentration by HPLC, trials #1-#3 [3, 4]: 0.556 and 0.569 and 0.558
2 | C[C@H](CCC(=O)O)[C@H]1CC[C@H]2[C@@H]3C(=O)C[C@@H]4C[C@H](O)CC[C@]4(C)[C@H]3CC[C@]12C [KLCA, 7-ketolithocholic acid] | especially insoluble | 100.0 | 0.876 | 0.883 and 0.877 and 0.869 | 98.3 | 0.861 | 0.870 and 0.866 and 0.847 | 96.4 | 0.845 | 0.848 and 0.844 and 0.843 | 74.9 | 0.656 | 0.661 and 0.651 | 100.0 | 0.880 | 0.888 and 0.879 and 0.874 | 100.2 | 0.882 | 0.871 and 0.887 and 0.888 | 101.4 | concentration by HPLC, Average ([3]; Table 1A: pH 7, 50° C., day 7): 0.893; concentration by HPLC, trials #1-#3 ([3]; Table 1A: pH 7, 50° C., day 7): 0.897 and 0.893 and 0.888; Percentage of day 0 concentration ([3]; Table 1A: pH 7, 50° C., day 20): 102.1%; concentration by HPLC, Average ([3]; Table 1A: pH 7, 50° C., day 20): 0.899; concentration by HPLC, trials #1-#3 ([3]; Table 1A: pH 7, 50° C., day 20): 0.893 and 0.909 and 0.894; Percentage of day 0 concentration ([3]; Table 1B: pH 10, 50° C., day 0): 100.0%; concentration by HPLC, Average ([3]; Table 1B: pH 10, 50° C., day 0): 0.870; concentration by HPLC, trials #1-#3 ([3]; Table 1B: pH 10, 50° C., day 0): 0.879 and 0.874 and 0.857; Percentage of day 0 concentration ([3]; Table 1B: pH 10, 50° C., day 4): 100.5%; concentration by HPLC, Average ([3]; Table 1B: pH 10, 50° C., day 4): 0.874; concentration by HPLC, trials #1-#3 ([3]; Table 1B: pH 10, 50° C., day 4): 0.870 and 0.873 and 0.880; Percentage of day 0 concentration ([3]; Table 1B: pH 10, 50° C., day 7): 101.5%; concentration by HPLC, Average ([3]; Table 1B: pH 10, 50° C., day 7): 0.884; concentration by HPLC, trials #1-#3 ([3]; Table 1B: pH 10, 50° C., day 7): 0.893 and 0.876 and 0.882; Percentage of day 0 concentration [3, 4]: 102.2%; concentration by HPLC, Average [3, 4]: 0.889; concentration by HPLC, trials #1-#3 [3, 4]: 0.887 and 0.893
